Calls of active or inactive are those of the source. No rule for the calls is given here.
System: Saccharomyces cerevisiae lifespan extension, no nicotinamide
Assay: yeast lifespan extension without nicotinamide, confirmation, yeast lifespan extension project, S. cerevisiae (AID 812);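 also: growth read as optical density after 42 hours of incubation at 30C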

Q: With `O=C(NC(=S)NNC(=O)c1ccc(Cl)cc1Cl)c1cccnc1` as the molecule, how does the EC50 read?
A: > 40 µM (inactive)

Q: Which EC50 does the source give for `c1ccc(-c2cc(N3CCOCC3)nc3ccccc23)cc1` here?
A: > 40 µM (inactive)

Q: `Cc1ccc(/C=C/C(=O)C2C(=O)c3ccccc3C2=O)cc1` was tested. Which EC50 did it give?
A: > 40 µM (inactive)

Q: Which EC50 does the source give for `CC1CC(C)CN(S(=O)(=O)c2cccc(C(=O)N3C(=O)c4cccc(N)c4C3=O)c2)C1` (stereo not given) here?
A: > 40 µM (inactive)

Q: With `O=C(CSc1nc2ccccc2o1)c1cc2ccccc2oc1=O` as the molecule, how does the EC50 read?
A: > 40 µM (inactive)

Q: For `COc1ccc(-c2cc(N)n(S(=O)(=O)c3c(F)c(F)c(F)c(F)c3F)n2)cc1OC`, which EC50 is on record?
A: 26.2 µM

Q: Which EC50 does the source give for `Cc1ccc(S(=O)(=O)N[C@@H](Cc2ccccc2)C(=O)CCl)cc1` here?
A: > 40 µM (inactive)

Q: `CCCCCCCCn1c(=O)c(C(=O)OCC)c(O)c2ccccc21` was tested. Which EC50 did it give?
A: > 40 µM (inactive)

Q: Which EC50 does the source give for `O=Cc1cc2ccccc2nc1SCc1ccc(Cl)cc1` here?
A: > 40 µM (inactive)

Q: Which EC50 does the source give for `O=C(Nc1scc(-c2ccc(F)cc2)c1C(=O)O)c1ccco1` here?
A: > 40 µM (inactive)

Q: `CCc1[nH]nc2c1C(c1ccc(Br)s1)C(C#N)=C(N)O2` (stereo not given) was tested. Which EC50 did it give?
A: > 40 µM (inactive)

Q: How did the EC50 turn out when `CC1=NN(Cc2ccccc2)C(=O)C1C(c1ccccc1)C(C#N)C#N` (stereo not given) was run?
A: > 40 µM (inactive)

Q: For `CCOc1ccc(/C=C2/C(=O)NC(=O)N(CCc3ccc(F)cc3)C2=O)cc1`, which EC50 is on record?
A: > 40 µM (inactive)

Q: `Cc1ccccc1OC(=O)n1c(=S)oc2cc(Cl)ccc21` was tested. Which EC50 did it give?
A: > 40 µM (inactive)

Q: Which EC50 does the source give for `CCOC(=O)CSC1=NC(=O)/C(=C/c2ccc(OC)cc2)S1` here?
A: > 40 µM (inactive)

Q: `CCCCCCC1C(C#N)=C(N)OC2=C1C(=O)CC(C)(C)C2` (stereo not given) was tested. Which EC50 did it give?
A: > 40 µM (inactive)

Q: `CCOC(=O)CC1=NN(c2ccccc2)C(=O)/C1=C\c1ccc(OC)cc1OC` was tested. Which EC50 did it give?
A: > 40 µM (inactive)

Q: Which EC50 does the source give for `Cc1nn(C(C)(C)C)c(OC(=O)c2ccc(Br)o2)c1Sc1ccccc1` here?
A: > 40 µM (inactive)

Q: For `O=Cc1ccccc1OS(=O)(=O)c1ccccc1`, which EC50 is on record?
A: > 40 µM (inactive)

Q: How did the EC50 turn out when `CSC1=NSC2=NC(=O)/C(=C\c3cccs3)C(=N)N12` was run?
A: > 40 µM (inactive)

Q: How did the EC50 turn out when `COc1ccc(-c2noc(CSc3nnc(-c4ccncc4)n3-c3ccc(F)cc3)n2)cc1OC` was run?
A: > 40 µM (inactive)

Q: With `O=C1CC(c2ccccc2)CC(O)=C1C=NCCN1CCN(C(=O)Nc2ccccc2)CC1` (stereo not given) as the molecule, how does the EC50 read?
A: > 40 µM (inactive)

Q: For `Cc1nc(SC(C)C)[nH]c(=O)c1Cc1ccccc1`, which EC50 is on record?
A: > 40 µM (inactive)

Q: With `Cc1cc(C)c(NC(=O)/C(=C/c2ccccc2)c2ccccc2)c(C)c1` as the molecule, how does the EC50 read?
A: > 40 µM (inactive)

Q: For `CCn1c(/N=C/c2ccccc2NS(=O)(=O)c2ccc(C)cc2)nc2ccccc21`, which EC50 is on record?
A: > 40 µM (inactive)

Q: For `Oc1ccc2ccccc2c1C=Nc1ccccc1-c1nc2ccccc2[nH]1`, which EC50 is on record?
A: > 40 µM (inactive)

Q: How did the EC50 turn out when `O=C(O)c1ccc(O)c(N2C(=O)Nc3ccccc3N2O)c1` was run?
A: > 40 µM (inactive)

Q: How did the EC50 turn out when `O=c1[nH]c2ccccc2nc1Cc1ccccc1` was run?
A: > 40 µM (inactive)

Q: For `O=c1cc(-c2ccccc2Cl)oc2ccc([N+](=O)[O-])c(O)c12`, which EC50 is on record?
A: > 40 µM (inactive)

Q: For `CCOC(=O)c1c(C)oc2c1c(C(c1cccnc1)N1CCCCC1)c(O)c1ccccc12` (stereo not given), which EC50 is on record?
A: > 40 µM (inactive)

Q: Which EC50 does the source give for `CCOC(=O)C1Cc2cc3c(cc2C1=O)CC(C(=O)OCC)C3=O` (stereo not given) here?
A: > 40 µM (inactive)

Q: How did the EC50 turn out when `C[C@]12CC[C@@H](O)C[C@@H]1CC[C@@H]1[C@@H]2CC[C@]2(C)[C@@H](O)CC[C@@H]12` was run?
A: > 40 µM (inactive)

Q: Which EC50 does the source give for `CC(=O)c1c(C)[nH]c(C(=O)OC2CCCCC2=O)c1C` (stereo not given) here?
A: > 40 µM (inactive)

Q: How did the EC50 turn out when `CCn1c(=O)c2ccccc2n2c(SCC(=O)N3CCCc4ccccc43)nnc12` was run?
A: > 40 µM (inactive)

Q: Which EC50 does the source give for `O=C1c2ccccc2NC(c2ccc(Cl)cc2Cl)N1O` (stereo not given) here?
A: > 40 µM (inactive)

Q: Which EC50 does the source give for `CS(=O)(=O)c1nc(-c2cccs2)cc(C(F)(F)F)n1` here?
A: > 40 µM (inactive)

Q: Which EC50 does the source give for `COC(=O)C1=C(C(=O)OC)C(c2cc(Br)ccc2O)c2sc(=O)[nH]c2S1` (stereo not given) here?
A: > 40 µM (inactive)

Q: With `O=C(N/N=C/c1ccccc1)c1c(O)c2ccccc2[nH]c1=O` as the molecule, how does the EC50 read?
A: > 40 µM (inactive)

Q: With `Cc1ncc(C23CC4CC(CC(C4)C2)C3)[nH]1` as the molecule, how does the EC50 read?
A: > 40 µM (inactive)

Q: Which EC50 does the source give for `COc1ccc(/C=C(\C#N)C(=O)N2CCOCC2)cc1Br` here?
A: > 40 µM (inactive)

Q: For `Cc1cc(C)c(S(=O)(=O)c2ccccc2)c(OC(=O)c2cc(F)c(F)cc2Cl)n1`, which EC50 is on record?
A: > 40 µM (inactive)

Q: `CN(Cc1c(O)ccc2c1oc(=O)c1ccccc12)C1CCCCC1` was tested. Which EC50 did it give?
A: > 40 µM (inactive)

Q: For `COC(=O)C1=C(N)OC2=C(C(=O)CC(C)(C)C2)C1c1cccs1` (stereo not given), which EC50 is on record?
A: > 40 µM (inactive)

Q: For `CCCCSc1[nH]c(=O)c(C(=O)OCC)cc1C#N`, which EC50 is on record?
A: > 40 µM (inactive)

Q: With `Cc1c(NC(=O)C(=O)/C=C(\O)c2ccc(Cl)cc2)c(=O)n(-c2ccccc2)n1C` as the molecule, how does the EC50 read?
A: > 40 µM (inactive)

Q: For `Cc1ccc(N(C)C(=O)Oc2ccc(C(=O)c3ccc(Cl)cc3)cc2)cc1`, which EC50 is on record?
A: > 40 µM (inactive)

Q: How did the EC50 turn out when `O=C(NCc1cccnc1)c1ccc(S(=O)(=O)N2CCCCC2)cc1` was run?
A: > 40 µM (inactive)

Q: How did the EC50 turn out when `O=c1[nH]c2ccccc2nc1C(Cl)c1ccccc1` (stereo not given) was run?
A: > 40 µM (inactive)

Q: `Cc1ccc(C(=O)c2no[n+]([O-])c2C(=O)c2ccc(C)cc2)cc1` was tested. Which EC50 did it give?
A: > 40 µM (inactive)

Q: How did the EC50 turn out when `C=CCN(CC=C)c1nc2ccccc2nc1C(C#N)C(=O)OC(C)C` (stereo not given) was run?
A: > 40 µM (inactive)

Reference: PubChem BioAssay AID812 (SRMLSC, 2007)
